Legend:
[1] = Fluorescence characteristics (max. absorption, excitation and fluorescence wavelengths, molar absorption coefficient); format: physicochemical
Experimental: Fluorescence characteristics are shown below.
(§1) Into 1 mL of purified water, Cy5 for labeling 1 mg of protein (manufactured by GE Healthcare Bioscience Biohealth Co., Ltd.), was dissolved. This solution was diluted 200 times with a 50 mM phosphoric acid buffer solution (pH 7.5) to measure OD value (0.1020).
(§2) Concentration of a Cy5 solution was determined from this OD value and molar absorption coefficient (ε=250,000), [described in a general product catalogue 2006 “7-4” of GE Healthcare Bioscience Co., Ltd.]), (0.408 μM). Then fluorescence was measured using the present solution.

[2] = described in general product catalogue 2006 of GE Healthcare Bioscience; in M-1cm-1; cited from earlier work
[3] = Relative fluorescence intensity, roughly calculated relative to Cy5 per 1 μM as 100; format: physicochemical
Experimental: Relative fluorescence intensity of a compound of the present invention was roughly calculated relative to fluorescence intensity of Cy5, which is a conventional cyanine dye.
First, fluorescence intensity of Cy5 per 1 μM was measured from fluorescence intensity of Cy5, and relative fluorescence intensity of the compound of the present invention was roughly calculated relative to this fluorescence intensity value as 100.
as §1, §2
Relative fluorescence intensities of the compounds (13), (21), (32) and (38) of the present invention were roughly estimated relative to fluorescence intensity of Cy5 per 1 μM, obtained in Example 8, (1), as 100.
Relative fluorescence intensity of a compound of the present invention was roughly calculated based on fluorescence intensity of Cy5, which is a conventional cyanine dye derivative.
First, fluorescence intensity of Cy5 per 1 μM was measured from fluorescence intensity of Cy5, and relative fluorescence intensity of the compound of the present invention was roughly calculated based on this fluorescence intensity value as 100.
Into 1 mL of purified water, Cy5 (manufactured by GE Healthcare Bioscience Biohealth Co., Ltd.) for labeling 1 mg of protein, was dissolved. This solution was diluted 200 times with a 50 mM phosphoric acid buffer solution (pH 7.5) to measure OD value (0.1020).
Concentration of a Cy5 solution was determined from this OD value and molar absorption coefficient (E=250,000, [described in a general product catalogue 2006 “7-4” of GE Healthcare Bioscience Co., Ltd.]), (0.408 μM).
Then fluorescence of Cy5 was measured using the present solution.
Relative fluorescence intensity of the compound (40) of the present invention, obtained in Example 11 and the compound (43) of the present invention, obtained in Example 12 were roughly calculated, relative to fluorescence intensity per 1 μM of Cy5, obtained in Example 14, (1), as 100.

[4] = 0.408 μM solution in 50 mM phosphoric acid buffer solution (pH 7.5)
[5] = Cy5 solution 0.408 μM in 50 mM phosphoric acid buffer solution (pH 7.5)

- Max. excitation wavelength [Ex(max)] [1, 4]: 649 nm
- Max. fluorescence wavelength [Em(max)] [1, 4]: 670 nm
- Max. excitation wavelength [Ex(max)] [1, 5]: 649 nm
- Max. fluorescence wavelength [Em(max)] [1, 5]: 670 nm
- Fluorescence intensity [3, 5]: 3,161
- Fluorescence intensity of Cy5/1 μM ([3]; per 1 μM, from intensity at 0.408 μM): 7,747
- Fluorescence intensity of Cy5/1 μM ([3]; per 1 μM, from the intensity of the 0.408 μM solution): 7,747
- Relative fluorescence intensity [relative to fluorescence intensity of Cy5 (1 μM) as 100] ([3]; roughly calculated, Cy5 per 1 μM = 100): 100
- Relative fluorescence intensity [relative to fluorescence intensity of Cy5 (1 μM) as 100] ([3]; roughly calculated; Cy5 per 1 μM = 100): 100
SMILES: CCN1/C(=C/C=C/C=C/C2=[N+](CCCCCC(=O)O)c3ccc(S(=O)(=O)O)cc3C2(C)C)C(C)(C)c2cc(S(=O)(=O)[O-])ccc21 [Cy5]
- molar absorption coefficient (ε) [2]: 250,000

From US8921124B2, “Pyrazole-based cyanine dye” (Wako Pure Chemical Industries, Ltd., priority 2006, dated 2014)
